We go through 6 molecules from patent US20250214896A1, “THIOL / SULFIDE CONTAINING CONCRETE COMPOSITION” (Yarmouk University, priority 2024, published 2025).

Series [1] can be described thus: physchem. The text has this: The reduction attributes of these compounds are subject to pH conditions, specifically, in the alkaline media of the cement mixture where the pH is around 12.
A short description of series [2]: Dimerization of thiol monomers under oxidizing conditions, evaluated by reverse-phase HPLC. Format: physicochemical. The following applies: about 0.56 M thiol, 10% NaOH, 3.0% hydrogen peroxide. The procedure:
In this example, reference will be made to FIGS. 1 and 2. In this example, the role of thiol group was evaluated by oxidizing the monomers generating a dimer. About 10% by volume aqueous NaOH solution was added to about 0.56 M of mercapto (thiol) series (cysteine, cysteine methyl ester, beta-mercaptoethanol, and dithiothreitol), then a […] step was performed using about 3.0% by volume aqueous solution of hydrogen peroxide. Subsequently, centrifugation was performed at about 3000 rpm for about 5 minutes, then the supernatant was discarded and the pellets were recrystallized followed by rinsing with a few drops of cold water.
The dimerization process was evaluated using reverse-phase HPLC. For the analysis, about 5 μL injection volume was used. The mobile phase consisted of a mixture of acetonitrile and water in a ratio of about 65:35. […] Two distinct peaks were identified at distinct retention times.
The modification of the carboxylic group to a methyl ester increased the acidity of the ammonium protons relative to the thiol protons. […] The inhibitory effect of the ester group on disulfide bond formation was attributed to the presence of the methyl ester group in cysteine methyl ester.

As to `O[C@H](CS)[C@H](O)CS` (racemic) [dithiothreitol], the pKa was 8.12 in series [1] (pKa of the first SH) and 8.72 in series [1] (pKa of the second SH).

As for `OCC(S)CS` (stereo not drawn) [2,3-disulfanylpropan-1-ol], the pKa stood at 15.8 in series [1] (pKa of the OH), 8.95 in series [1] (pKa of the primary SH) and 8.05 in series [1] (pKa of the secondary SH).

In the case of `OCC(O)C(S)CS` (stereo not drawn) [3,4-disulfanylbutane-1,2-diol, 3,4-disulfanyl-butane-1,2-diol], the pKa in series [1] (pKa of the primary OH) came to 15.8; in series [1] (pKa of the primary SH), 8.93; in series [1] (pKa of the secondary OH), 14.3; in series [1] (pKa of the secondary SH), 7.98.

As for `COC(=O)[C@@H](N)CS` [cysteine methyl ester], the figures for the pKa in series [1] and in series [1] (pKa of the NH2) were 6.86 and 7.93, respectively. Besides, the “dimer (disulfide) formation on oxidation” value in series [2] is “unable to form a dimer”.

Take `N[C@@H](CS)C(=O)O` [cysteine]: the pKa was 2.35 in series [1] (pKa of the COOH), 9.54 in series [1] (pKa of the NH2) and 6.61 in series [1] (pKa of the SH). Further, the “dimer (disulfide) formation on oxidation” value in series [2] was “successful formation of cysteine dimer”.

For the molecule β-mercapto ethanol [β-mercaptoethanol], in series [1], the “pKa of the OH” value is listed as 16.25 and the “pKa of the SH” value was 8.51.
